For this test, the target named is T1, APOL1 (Homo sapiens, UniProt O14791).
T1 sequence (O14791 1-398 S342G/I384M): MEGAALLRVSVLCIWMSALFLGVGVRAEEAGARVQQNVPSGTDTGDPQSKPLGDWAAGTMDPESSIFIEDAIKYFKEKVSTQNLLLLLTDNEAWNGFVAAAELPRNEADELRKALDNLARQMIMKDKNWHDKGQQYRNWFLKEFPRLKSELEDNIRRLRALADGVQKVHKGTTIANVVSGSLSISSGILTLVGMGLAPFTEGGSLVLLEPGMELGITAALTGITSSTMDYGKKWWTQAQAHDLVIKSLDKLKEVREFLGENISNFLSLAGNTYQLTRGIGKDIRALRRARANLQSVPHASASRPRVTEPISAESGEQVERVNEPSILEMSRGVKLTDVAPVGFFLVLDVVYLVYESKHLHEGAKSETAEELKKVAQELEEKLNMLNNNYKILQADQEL
Put plainly: MultiTox-Fluor Multiplex Cytotoxicity Assay in tet-inducible APOL1 T-REx-HEK293 cells (cell rescue, ratio of dead to live cells). The format is cell-based. As to conditions: tet-inducible transgenic APOL1 T-REx-HEK293 cell lines, 50 ng/mL tet, 24 hours; read-out: IP50 (i.e., IC50 for cell proliferation). An excerpt: The MultiTox-Fluor Multiplex Cytotoxicity Assay is a single-reagent-addition, homogeneous, fluorescence assay that measures the number of live and dead cells simultaneously in culture wells. The assay measures cell viability and cytotoxicity by detecting two distinct protease activities. […] The substrate enters intact cells, where it is cleaved to generate a fluorescent signal proportional to the number of living cells. […] A ratio of dead to live cells is used to normalize data.
The MultiTox reagent was added to each well and placed back in the incubator for an additional 30 minutes. The plate was read on the EnVision plate reader. A ratio of dead to live cells was used to normalize, and data was imported, analyzed, and fit using Genedata Screener (Basel, Switzerland) software. Data was normalized using percent of control, no tet (100% viability), and 50 ng/mL tet treated (0% viability), and fit using Smart Fit. The reagents, methods, and complete protocol for the MultiTox assay are described below.
Cells were washed with DPBS and then trypsinized to dissociate from the flask. Media was used to quench the trypsin, cells were then pelleted at 200 g and resuspended in fresh cell assay media (DMEM, 2% Tet-free FBS, 2 mM L-glutamine, 100 Units/mL penicillin-streptomycin). […] The plates were then incubated at room temperature for one hour.
Tetracycline is needed to induce APOL1 expression. 1 mg/mL tet stock in water was diluted to 250 ng/mL (5×) in cell assay media.
Compounds were dispensed at 200 nL in DMSO. The final top concentration was 10 μM with a 10 point 3-fold dilution in duplicate in the MultiTox assay.
20 μL was transferred from the 5× tet plate to the ARP and mixed, then 5 μL of 5× tet and the compounds were transferred to the cell plate and mixed using the Bravo. The cell plate was placed in the humidified 37° C. 5% CO2 incubator for 24 hours.
The MultiTox-Fluor Multiplex Cytotoxicity Assay was performed in accordance with the manufacturer's protocol. After cells were incubated with tet and compound for 24 hours, 25 μL of 1× MultiTox reagent was added to each well using the Multidrop dispenser; the plates were placed on a plate shaker (600 rpm) for 2 minutes, then centrifuged briefly and placed back in the 37° C. incubator for 30 minutes. The cell viability (excitation: 400 nm, emission: 486 nm) and cytotoxicity (excitation: 485 nm, emission: 535 nm) were read using the EnVision plate reader. A ratio of dead (cytotoxicity) to live (viability) cells was reported. Data was exported and analyzed in Genedata. Data was normalized using percent of control, no tet (100% viability), and 50 ng/mL tet treated (0% viability), and fit using Smart Fit settings in Genedata.

The values that follow come from patent publication US20250171459A1, “2-METHYL-4',5'-DIHYDROSPIRO[PIPERIDINE-4,7'-THIENO[2,3-C]PYRAN] DERIVATIVES AS INHIBITORS OF APOL1 AND METHODS OF USING SAME” (Vertex Pharmaceuticals Incorporated, priority 2022, published 2025).

pIC50: −log10 of the molar value.

`CCc1cc2c(s1)CCO[C@@]21CCN(Cc2cn(CS(=O)(=O)CC)nn2)[C@@H](C)C1` [Compound 14, (2′S)-2-ethyl-1′-[[1-(ethylsulfonylmethyl)triazol-4-yl]methyl]-2′-methyl-spiro[6,7-dihydrothieno[3,2-c]pyran-4,4′-piperidine]]: the pIC50 was 6.30 to 7.00.
For the compound `CCc1cc2c(s1)CCO[C@@]21CCN(Cc2cn([C@@H]3CCN(C(=O)OC(C)(C)C)C3)nn2)[C@@H](C)C1` [Compound 15, tert-butyl (3R)-3-[4-[[(2′S,4R)-2-ethyl-2′-methyl-spiro[6,7-dihydrothieno[3,2-c]pyran-4,4′-piperidine]-1′-yl]methyl]triazol-1-yl]pyrrolidine-1-carboxylate], the pIC50 is 6.30 to 7.00.
In the case of `CCc1cc2c(s1)CCO[C@@]21CCN(Cc2cn(-c3cncc(O)c3)nn2)[C@@H](C)C1` [Compound 16, 5-[4-[[(2′S,4R)-2-ethyl-2′-methyl-spiro[6,7-dihydrothieno[3,2-c]pyran-4,4′-piperidine]-1′-yl]methyl]triazol-1-yl]pyridin-3-ol], the pIC50 was 6.30 to 7.00.
In the case of `CCc1cc2c(s1)CCO[C@@]21CCN(Cc2cn([C@H]3CCN(C(=O)OC(C)(C)C)C3)nn2)[C@@H](C)C1` [Compound 17], the pIC50 is more than 7.00.
With `CCc1cc2c(s1)CCO[C@@]21CCN(Cc2cn([C@H]3C[C@H](S(C)(=O)=O)C3)nn2)[C@@H](C)C1` [Compound 18] the figure was more than 7.00; with `CCc1cc2c(s1)CCO[C@@]21CCN(Cc2cn([C@H]3C[C@@H](S(C)(=O)=O)C3)nn2)[C@@H](C)C1` [Compound 19], 6.30 to 7.00.
On to `CCc1cc2c(s1)CCO[C@@]21CCN(Cc2cn(C3CCN(S(C)(=O)=O)CC3)nn2)[C@@H](C)C1` [Compound 20], for which the pIC50 is 6.30 to 7.00.
In the case of `CCc1cc2c(s1)CCO[C@@]21CCN(Cc2cn(C3CN(C(=O)OC(C)(C)C)C3)nn2)[C@@H](C)C1` [Compound 21], the pIC50 was more than 7.00.
Under `CCc1cc2c(s1)CCO[C@@]21CCN(Cc2cn(CCSC(F)(F)F)nn2)[C@@H](C)C1` [Compound 22] stands more than 7.00.
On to `CCc1cc2c(s1)CCO[C@@]21CCN(Cc2cn(CCSCCO)nn2)[C@@H](C)C1` [Compound 23], for which the pIC50 was more than 7.00.
For the compound `CCc1cc2c(s1)CCO[C@@]21CCN(Cc2cn(CCSCC(C)(C)O)nn2)[C@@H](C)C1` [Compound 24], the pIC50 is more than 7.00.
Under `CCc1cc2c(s1)CCO[C@@]21CCN(Cc2cn(C3CC4(C3)CS(=O)(=O)C4)nn2)[C@@H](C)C1` [Compound 25] stands more than 7.00.
Under `CCc1cc2c(s1)CCO[C@@]21CCN(Cc2cn(CCS(=O)(=O)c3ccccc3)nn2)[C@@H](C)C1` [Compound 26] stands more than 7.00; under `CCc1cc2c(s1)CCO[C@@]21CCN(Cc2cn([C@H]3CCN(S(C)(=O)=O)C3)nn2)[C@@H](C)C1` [Compound 27], more than 7.00.
Under `CCc1cc2c(s1)CCO[C@@]21CCN(Cc2cn(C3CCCN(S(C)(=O)=O)C3)nn2)[C@@H](C)C1` (some centres unmarked) [Compound 28] stands 6.30 to 7.00.
As for `CCc1cc2c(s1)CCO[C@@]21CCN(Cc2cn(C3CS(=O)(=O)C3)nn2)[C@@H](C)C1` [Compound 29], the pIC50 was more than 7.00.
With `CCc1cc2c(s1)CCO[C@@]21CCN(Cc2cn(C3CCN(S(C)(=O)=O)C3)nn2)[C@@H](C)C1` (some centres unmarked) [Compound 30] the figure was 6.30 to 7.00; with `CCc1cc2c(s1)CCO[C@@]21CCN(Cc2cn(CCn3ccnc3)nn2)[C@@H](C)C1` [Compound 31], 6.30 to 7.00.
With `CCc1cc2c(s1)CCO[C@@]21CCN(Cc2cn(Cc3cnc(C)cn3)nn2)[C@@H](C)C1` [Compound 32] the figure was more than 7.00; with `CCc1cc2c(s1)CCO[C@@]21CCN(Cc2cn(CC3CCO3)nn2)[C@@H](C)C1` (some centres unmarked) [Compound 33], more than 7.00; with `CCc1cc2c(s1)CCO[C@@]21CCN(Cc2cn(Cc3cnco3)nn2)[C@@H](C)C1` [Compound 34], more than 7.00.
Under `CCc1cc2c(s1)CCO[C@@]21CCN(Cc2cn(Cc3cocn3)nn2)[C@@H](C)C1` [Compound 35] stands 6.30 to 7.00; under `CCc1cc2c(s1)CCO[C@@]21CCN(Cc2cn(CCc3cn(C)cn3)nn2)[C@@H](C)C1` [Compound 36], 6.30 to 7.00.
Turning to `CCc1cc2c(s1)CCO[C@@]21CCN(Cc2cn(CCC#N)nn2)[C@@H](C)C1` [Compound 37], the pIC50 was more than 7.00.
Turning to `CCc1cc2c(s1)CCO[C@@]21CCN(Cc2cn(Cc3cnccn3)nn2)[C@@H](C)C1` [Compound 38], the pIC50 is 6.30 to 7.00.
Under `CCc1cc2c(s1)CCO[C@@]21CCN(Cc2cn(Cc3c(CO)cnc(C)c3O)nn2)[C@@H](C)C1` [Compound 39] stands 6.30 to 7.00; under `CCc1cc2c(s1)CCO[C@@]21CCN(Cc2cn(Cc3ncc(C)o3)nn2)[C@@H](C)C1` [Compound 40], 6.30 to 7.00.
Regarding `CCc1cc2c(s1)CCO[C@@]21CCN(Cc2cn(Cc3ccnnc3)nn2)[C@@H](C)C1` [Compound 41], the pIC50 is more than 7.00.
Turning to `CCc1cc2c(s1)CCO[C@@]21CCN(Cc2cn(CCNC(=O)c3ccncc3)nn2)[C@@H](C)C1` [Compound 42], the pIC50 is more than 7.00.
Under `CCc1cc2c(s1)CCO[C@@]21CCN(Cc2cn(CCc3cnccn3)nn2)[C@@H](C)C1` [Compound 43] stands 6.30 to 7.00.
As for `CCc1cc2c(s1)CCO[C@@]21CCN(Cc2cn(Cc3cnn(C)c3C)nn2)[C@@H](C)C1` [Compound 44], the pIC50 is more than 7.00.
Under `CCc1cc2c(s1)CCO[C@@]21CCN(Cc2cn(Cc3cnoc3)nn2)[C@@H](C)C1` [Compound 45] stands more than 7.00; under `CCc1cc2c(s1)CCO[C@@]21CCN(Cc2cn(CCn3cccn3)nn2)[C@@H](C)C1` [Compound 46], 6.30 to 7.00; under `CCc1cc2c(s1)CCO[C@@]21CCN(Cc2cn(CCc3c[nH]cn3)nn2)[C@@H](C)C1` [Compound 48], more than 7.00.
As to `CCc1cc2c(s1)CCO[C@@]21CCN(Cc2cn(Cc3cnn(C)c3)nn2)[C@@H](C)C1` [Compound 49], the pIC50 is more than 7.00.
With `CCc1cc2c(s1)CCO[C@@]21CCN(Cc2cn(CCNC(=O)c3cnc(C)cn3)nn2)[C@@H](C)C1` [Compound 50] the figure was more than 7.00.
For the compound `CCc1cc2c(s1)CCO[C@@]21CCN(Cc2cn(Cc3ncccn3)nn2)[C@@H](C)C1` [Compound 51], the pIC50 is 6.30 to 7.00.
Regarding `CCc1cc2c(s1)CCO[C@@]21CCN(Cc2cn(Cc3nnc4n3CCCC4)nn2)[C@@H](C)C1` [Compound 52], the pIC50 is more than 7.00.
With `CCc1cc2c(s1)CCO[C@@]21CCN(Cc2cn(Cc3nc(C)cc(C)n3)nn2)[C@@H](C)C1` [Compound 53], the pIC50 was 6.00 to 6.30.
With `CCc1cc2c(s1)CCO[C@@]21CCN(Cc2cn(Cc3cn(C)nc3C)nn2)[C@@H](C)C1` [Compound 54] the figure was more than 7.00.
Under `CCc1cc2c(s1)CCO[C@@]21CCN(Cc2cn(Cc3ccncn3)nn2)[C@@H](C)C1` [Compound 55] stands 6.30 to 7.00; under `CCc1cc2c(s1)CCO[C@@]21CCN(Cc2cn(Cc3nccn3C)nn2)[C@@H](C)C1` [Compound 56], more than 7.00; under `CCc1cc2c(s1)CCO[C@@]21CCN(Cc2cn(Cc3c[nH]nc3C)nn2)[C@@H](C)C1` [Compound 57], more than 7.00.
Under `CCc1cc2c(s1)CCO[C@@]21CCN(Cc2cn(CC(C)n3cncn3)nn2)[C@@H](C)C1` (some centres unmarked) [Compound 58] stands 6.30 to 7.00; under `CCc1cc2c(s1)CCO[C@@]21CCN(Cc2cn(CC(=O)NC3CC3)nn2)[C@@H](C)C1` [Compound 59], more than 7.00; under `CCc1cc2c(s1)CCO[C@@]21CCN(Cc2cn(Cc3cnn(CCO)c3)nn2)[C@@H](C)C1` [Compound 60], more than 7.00.
`CCc1cc2c(s1)CCO[C@@]21CCN(Cc2cn(C3CCCN(C(C)=O)C3)nn2)[C@@H](C)C1` (some centres unmarked) [Compound 61]: the pIC50 is 6.30 to 7.00.
